Laboratory results: PubChem BioAssay AID330 (DTP/NCI, 2004)
“And” between values parts separate entries of the source, which are not always exact repeats. Equal values may be shown once. Toxic doses and inconclusive results are not listed.

System: P388 leukemia ip, CD2F1 mice, survival T/C
Experiment: NCI In Vivo Anticancer Drug Screen. Data for tumor model P388 Leukemia (intraperitoneal) in CD2F1 (CDF1) mice
Conditions: endpoint: median survival time, higher = longer survival
How it was run: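 Mice carrying the transplanted tumor received test compound or vehicle. Survival was recorded in each group, and the value is the treated-group measurement divided by that of the vehicle-treated control group.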

[1] = dose: 6.25 mg/kg/injection, schedule: Q01DX009 (ip), vehicle: saline
[2] = dose: 50.0 mg/kg/injection, schedule: Q01DX009 (ip), vehicle: saline
[3] = dose: 100.0 mg/kg/injection, schedule: Q04DX003 (ip), vehicle: saline with Tween-80
[4] = dose: 200.0 mg/kg/injection, schedule: Q04DX003 (ip), vehicle: saline with Tween-80
[5] = dose: 50.0 mg/kg/injection, schedule: Q01DX005 (ip), vehicle: saline with Tween-80
[6] = dose: 100.0 mg/kg/injection, schedule: Q01DX005 (ip), vehicle: saline with Tween-80
[7] = dose: 200.0 mg/kg/injection, schedule: Q01DX005 (ip), vehicle: saline with Tween-80
[8] = dose: 25.0 mg/kg/injection, schedule: Q01DX005 (ip), vehicle: saline with Tween-80
[9] = dose: 100.0 mg/kg/injection, schedule: Q01DX001 (ip), vehicle: Klucel (hydroxypropylcellulose) (HPC)
[10] = dose: 200.0 mg/kg/injection, schedule: Q01DX001 (ip), vehicle: Klucel (hydroxypropylcellulose) (HPC)
[11] = dose: 12.5 mg/kg/injection, schedule: Q01DX009 (ip), vehicle: saline
[12] = dose: 100.0 mg/kg/injection, schedule: Q01DX009 (ip), vehicle: saline with Tween-80
[13] = dose: 100.0 mg/kg/injection, schedule: Q04DX002 (ip), vehicle: saline
[14] = dose: 12.5 mg/kg/injection, schedule: Q01DX005 (ip), vehicle: saline with Tween-80
[15] = dose: 60.0 mg/kg/injection, schedule: Q01DX005 (ip), vehicle: saline with Tween-80
[16] = dose: 120.0 mg/kg/injection, schedule: Q01DX005 (ip), vehicle: saline with Tween-80
[17] = dose: 240.0 mg/kg/injection, schedule: Q01DX005 (ip), vehicle: saline with Tween-80
[18] = dose: 50.0 mg/kg/injection, schedule: Q01DX005 (ip), vehicle: Klucel (hydroxypropylcellulose) (HPC)

Cc1cc2nc3ccc(N)cc3oc-2cc1=[N+](C)C
T/C [1]: 108 % of control | T/C [2]: 100 % of control

CN1C(Sc2ccccc2)=NN(c2ccccc2)CN1c1ccccc1
T/C (dose: 50.0 mg/kg/injection, schedule: Q04DX003 (ip), vehicle: saline with Tween-80): 93 % of control | T/C [3]: 97 % of control | T/C [4]: 88 % of control

Cc1nn(C(=S)S)c(C)c1N=Nc1ccc(F)cc1
T/C [5]: 103 % of control | T/C [6]: 110 % of control | T/C [7]: 101 % of control

CC(C)N1C(=O)N(Cl)C2C1N(Cl)C(=O)N2Cl (stereo not given)
T/C [8]: 99 % of control | T/C [5]: 108 % of control and 122 % of control | T/C [6]: 122 % of control | T/C [7]: 113 % of control and 117 % of control

COc1cc(OCc2ccccc2)c(O)cc1-c1coc2cc(OCc3ccccc3)ccc2c1=O
T/C [9]: 96 % of control | T/C [10]: 100 % of control | T/C (dose: 400.0 mg/kg/injection, schedule: Q01DX001 (ip), vehicle: Klucel (hydroxypropylcellulose) (HPC)): 94 % of control

CCCC/C(C)=N/NC(=S)SC
T/C (dose: 3.12 mg/kg/injection, schedule: Q01DX009 (ip), vehicle: saline): 100 % of control | T/C [1]: 106 % of control | T/C [11]: 100 % of control

CSc1ccc(N=C(N)N)cc1
T/C (dose: 50.0 mg/kg/injection, schedule: Q01DX009 (ip), vehicle: saline with Tween-80): 108 % of control | T/C [12]: 110 % of control

c1ccc(-c2csc3nc(N4CCCCC4)cn23)cc1
T/C (dose: 100.0 mg/kg/injection, schedule: Q04DX003 (ip), vehicle: saline + Tween-80 + alcohol): 107 % of control | T/C (dose: 200.0 mg/kg/injection, schedule: Q04DX003 (ip), vehicle: saline + Tween-80 + alcohol): 107 % of control

CC(=O)OCCN1CCN(CCCN2c3ccccc3Sc3ccc(C(F)(F)F)cc32)CC1
T/C [13]: 89 % of control and 90 % of control

CCc1cc(C=C2C(=O)c3ccccc3C2=O)cc(CC)c1O
T/C [13]: 99 % of control | T/C (dose: 200.0 mg/kg/injection, schedule: Q04DX002 (ip), vehicle: saline): 99 % of control | T/C (dose: 400.0 mg/kg/injection, schedule: Q04DX002 (ip), vehicle: saline): 99 % of control

CCOc1ccc(-c2nc(-c3ccc(N(C)C(=O)C(Cl)Cl)cc3)cs2)cc1OCC
T/C (dose: 100.0 mg/kg/injection, schedule: Q04DX003 (ip), vehicle: Klucel (hydroxypropylcellulose) (HPC)): 102 % of control | T/C (dose: 200.0 mg/kg/injection, schedule: Q04DX003 (ip), vehicle: Klucel (hydroxypropylcellulose) (HPC)): 100 % of control | T/C (dose: 400.0 mg/kg/injection, schedule: Q04DX003 (ip), vehicle: Klucel (hydroxypropylcellulose) (HPC)): 94 % of control

CCOC(=O)C(Cc1ccccc1C(=O)NC)c1ccccc1 (stereo not given)
T/C (dose: 100.0 mg/kg/injection, schedule: Q01DX009 (ip), vehicle: saline sonified): 95 % of control | T/C (dose: 200.0 mg/kg/injection, schedule: Q01DX009 (ip), vehicle: saline sonified): 95 % of control | T/C (dose: 400.0 mg/kg/injection, schedule: Q01DX009 (ip), vehicle: saline sonified): 95 % of control

C=C1C(=O)O[C@H]2C=C(C)[C@H]3[C@@H](OC(C)=O)C[C@@](C)(O)[C@@H]3C[C@H]12
T/C (dose: 12.5 mg/kg/injection, schedule: Q01DX009 (ip), vehicle: suspension in saline): 106 % of control | T/C (dose: 25.0 mg/kg/injection, schedule: Q01DX009 (ip), vehicle: suspension in saline): 106 % of control | T/C (dose: 50.0 mg/kg/injection, schedule: Q01DX009 (ip), vehicle: suspension in saline): 103 % of control | T/C (dose: 100.0 mg/kg/injection, schedule: Q01DX009 (ip), vehicle: suspension in saline): 114 % of control

CCc1ccccc1NC(=O)C(=O)CC(=O)c1ccc(Cl)s1
T/C (dose: 100.0 mg/kg/injection, schedule: Q04DX002 (ip), vehicle: saline with Tween-80): 100 % of control | T/C (dose: 200.0 mg/kg/injection, schedule: Q04DX002 (ip), vehicle: saline with Tween-80): 102 % of control | T/C (dose: 400.0 mg/kg/injection, schedule: Q04DX002 (ip), vehicle: saline with Tween-80): 103 % of control

Cc1c(O)c2ccc(N(C)C)cc2[nH]c1=O
T/C [5]: 101 % of control | T/C [6]: 95 % of control | T/C [7]: 100 % of control

CCOc1ccc2cc(S(=O)(=O)O)ccc2c1N
T/C [3]: 100 % of control | T/C [4]: 90 % of control | T/C (dose: 400.0 mg/kg/injection, schedule: Q04DX003 (ip), vehicle: saline with Tween-80): 100 % of control

CCOC(=O)Nc1cc2c(c(N)n1)N=C(c1ccc(Cl)cc1Cl)CN2
T/C [14]: 157 % of control | T/C [8]: 90 % of control

O=C(N/N=C/c1ccccc1[OH2+])c1ccncc1.O=S(=O)([O-])[O-].[Fe+2]
T/C [9]: 94 % of control | T/C [10]: 92 % of control

O=C1c2ccccc2C(=O)c2c(NCCNCCNCCO)ccc(NCCNCCNCCO)c21
T/C (dose: 8.0 mg/kg/injection, schedule: Q01DX009 (ip), vehicle: acid diluted with saline): 94 % of control | T/C (dose: 16.0 mg/kg/injection, schedule: Q01DX009 (ip), vehicle: acid diluted with saline): 101 % of control | T/C (dose: 25.0 mg/kg/injection, schedule: Q01DX009 (ip), vehicle: water): 111 % of control and 120 % of control | T/C (dose: 32.0 mg/kg/injection, schedule: Q01DX009 (ip), vehicle: acid diluted with saline): 96 % of control | T/C (dose: 50.0 mg/kg/injection, schedule: Q01DX009 (ip), vehicle: water): 111 % of control | T/C (dose: 64.0 mg/kg/injection, schedule: Q01DX009 (ip), vehicle: acid diluted with saline): 98 % of control

O=c1nc2n(CC(O)C(O)C(O)C(O)CO)c3cc(Cl)c(Cl)cc3nc-2c(=O)[nH]1 (stereo not given)
T/C [5]: 105 % of control | T/C [6]: 111 % of control

CC[N+](C)(CC)C[Si](C)(C)c1ccccc1
T/C (dose: 12.5 mg/kg/injection, schedule: Q01DX005 (ip), vehicle: saline): 98 % of control | T/C (dose: 25.0 mg/kg/injection, schedule: Q01DX005 (ip), vehicle: saline): 100 % of control | T/C (dose: 50.0 mg/kg/injection, schedule: Q01DX005 (ip), vehicle: saline): 105 % of control and 98 % of control

COC1(C)O[C@@]2(C)c3ccccc3C(=O)[C@@]2(c2ccccc2)O1 (stereo not given in full)
T/C [15]: 104 % of control | T/C [16]: 97 % of control | T/C [17]: 97 % of control

Oc1[nH]c2ccccc2c1N=NC(=S)SCc1ccccc1
T/C [11]: 89 % of control | T/C (dose: 25.0 mg/kg/injection, schedule: Q01DX009 (ip), vehicle: saline): 87 % of control | T/C [2]: 90 % of control

Cc1cc(C)c(CSc2cc(N)nc(N)c2N)c(C)c1
T/C (dose: 50.0 mg/kg/injection, schedule: Q01DX009 (ip), vehicle: Klucel (hydroxypropylcellulose) (HPC)): 104 % of control | T/C (dose: 100.0 mg/kg/injection, schedule: Q01DX009 (ip), vehicle: Klucel (hydroxypropylcellulose) (HPC)): 107 % of control

Cc1nc(N)c2[nH]cnc2n1
T/C [18]: 99 % of control | T/C (dose: 100.0 mg/kg/injection, schedule: Q01DX005 (ip), vehicle: Klucel (hydroxypropylcellulose) (HPC)): 100 % of control | T/C (dose: 200.0 mg/kg/injection, schedule: Q01DX005 (ip), vehicle: Klucel (hydroxypropylcellulose) (HPC)): 99 % of control

CC(=O)NC(=O)CCCCCCC(=O)NC(C)=O
T/C [18]: 88 % of control

CCN(CC)CCCC(C)Nc1ccc2ccc(Cl)cc2n1 (stereo not given)
T/C (dose: 50.0 mg/kg/injection, schedule: Q01DX005 (ip), vehicle: saline + Tween-80 + alcohol): 101 % of control | T/C (dose: 100.0 mg/kg/injection, schedule: Q01DX005 (ip), vehicle: saline + Tween-80 + alcohol): 101 % of control | T/C (dose: 200.0 mg/kg/injection, schedule: Q01DX005 (ip), vehicle: saline + Tween-80 + alcohol): 100 % of control

COC(=O)Nc1nc2ccc(C(=O)C3CC3)cc2[nH]1
T/C [14]: 111 % of control | T/C [8]: 108 % of control | T/C [5]: 117 % of control | T/C [6]: 180 % of control

C=C(C)C1CC=C(/C=N/O)CC1 (stereo not given)
T/C [12]: 100 % of control | T/C (dose: 400.0 mg/kg/injection, schedule: Q01DX009 (ip), vehicle: saline with Tween-80): 91 % of control

COC(=O)c1cccc2c([N+](=O)[O-])c(NC(C)=O)cc(C(=O)OC)c12
T/C [15]: 100 % of control | T/C [16]: 104 % of control | T/C [17]: 100 % of control

Cc1cc2cc3c(=O)n(C)c(=O)nc-3n(C)c2cc1C
T/C [5]: 92 % of control | T/C [6]: 98 % of control | T/C [7]: 95 % of control

Cc1c(C=O)cc(-c2ccccc2)n1C
T/C [5]: 89 % of control | T/C [6]: 89 % of control | T/C [7]: 91 % of control
